{"source": "patent US8735593B2", "about": "“Aminopyridines useful as inhibitors of protein kinases” (Vertex Pharmaceuticals Incorporated, priority 2007, dated 2014)", "key": {"[1]": {"system": "β-catenin dependent TCF/LEF transcriptional activity", "assay": "β-Catenin stabilization protocol, β-lactamase reporter assay in Jurkat cells", "assay_type": "cell-based", "details": "Homo sapiens, 460/530 ratio 50% of the maximum effect, read-out: Beta Catenin IC50", "text": "GSK-3 phosphorylation of β-catenin targets it to the proteosome for degradation. Inhibition of GSK-3 results in accumulation of β-catenin in the cytosol of cells which through interaction with the transcription factor TCF/LEF translocates to the nucleus and drives the transcription of Wnt-dependent genes. The assay is designed to determine the level of β-catenin dependent TCF/LEF transcriptional activity in a quantitative manner through the use of a β-lactamase reporter assay in Jurkat cells dosed with a compound.\nJurkat β-catenin cells are starved overnight in assay media (1% FBS, 1× Penstrep, RPMI) in the flask. The next day Jurkat β-catenin cells are seeded in 96 well flat bottom plates at a density of 50,000 cells/well in assay media in a volume of 100 ul. The compound is added to the well at a final DMSO concentration of 0.75% and incubated at 37° C. o/n. The next day, 20 uL of 6×CCF4 dye is added to the wells and incubated at room temperature for 1-2 hours. Plates are read on the Cytofluor 4000 series multiwell plate reader and the 460/530 ratio is determined. The GSK-3 IC50 for induction of β-catenin is determined by plotting the 460/530 ratio against the concentration of compound (Log scale) and using the equation of the slope to calculate the point at which the ratio is 50% of the maximum effect."}, "GSK3α TYR 279": {"biological_target": "GSK3α TYR 279 (Homo sapiens (Human), UniProt P49840)", "sequence (P49840 whole entry)": "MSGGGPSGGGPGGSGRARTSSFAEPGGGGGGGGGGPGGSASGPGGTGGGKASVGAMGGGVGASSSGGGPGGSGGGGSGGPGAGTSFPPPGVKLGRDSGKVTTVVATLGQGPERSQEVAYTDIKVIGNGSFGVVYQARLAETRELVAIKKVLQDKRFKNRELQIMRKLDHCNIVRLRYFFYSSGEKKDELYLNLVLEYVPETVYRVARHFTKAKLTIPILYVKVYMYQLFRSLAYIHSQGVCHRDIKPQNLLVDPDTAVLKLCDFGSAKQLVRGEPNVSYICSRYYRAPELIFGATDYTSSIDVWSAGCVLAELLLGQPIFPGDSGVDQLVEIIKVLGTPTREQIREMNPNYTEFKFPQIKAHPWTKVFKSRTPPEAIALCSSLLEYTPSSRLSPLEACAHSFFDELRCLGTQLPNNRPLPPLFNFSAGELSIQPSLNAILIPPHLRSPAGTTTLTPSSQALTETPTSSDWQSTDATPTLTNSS", "assay": "GSK-3α p-TYR inhibition assay, western blotting of Jurkat cells", "assay_type": "cell-based", "details": "compound incubated o/n, read-out: GSK3a pTYR 279: IC50", "experimental": "(§1) Compounds are screened for their ability to inhibit the phosphorylation of tyrosine (TYR) residues through the use of western blotting of Jurkat cells dosed with the compounds. The phosphorylation of the specific TYR residues tested are GSK3α TYR 279 and GSK3β TYR 216.\n(§2) Jurkat cells are seeded at a density of 2×10^5 cells/well in a 12 well dish in starvation media (RPMI+1% FBS+P/S). Following starvation for 16 hours, the compound is dosed into each well at a final DMSO concentration of 0.3% and cells are incubated o/n at 37° C. 5% CO2. The next day, cells are spun down at 1500 rpm, washed with PBS, and lysed in 100 uL Laemli sample buffer with β-mercaptoethanol.\n(§3) 15 microliters (uL) of cell lysates are loaded onto a 10% tris-glycine gel and run at 120 v for 2 hours or until dye front runs off of the gel. The protein is then transferred onto a PVDF membrane at 100 v for 60 min. PBST (PBS containing 0.1% Tween 20, such as 1 ml Tween per 1 L of PBS) is then made up and used for all washes and antibody incubations. The blot is blocked in 5% nonfat milk PBST for one hour.\n(§4) The primary antibody (GSK-3α/β pTYR 279/216 at 1:1000 dilution Upstate cat#05-413) is then added in 5%-nonfat milk PBST overnight at 4° C. with gentle rocking. The blot is then washed in PBST for 5 min. This is then repeated 4 times. A secondary anti-mouse-HRP conjugated antibody (1:5000 dilution) is added for 60 min in 5% milk PBST. The blot is then washed in PBST for 5 min. This is also repeated 4 times. 3.0 mL of the developing solution (ECL plus Western Blotting Detection System from Amersham/GE cat# RPN2132) is made and then added. The solution is swirled over the blot for ˜30 sec. The blot is then developed using CL-Xposure clear blue X-ray film. GAPDH expression level is used as a loading control, (GAPDH antibody: santa cruz 25-778) at 1:10000 dilution.\n(§5) For determination of GSK-3α and GSK-3β pTYR IC50, the density of the respective bands for each protein at specific compound concentration is compared to a no compound DMSO treated control cell sample present on each exposure. IC50 numbers are defined as the concentration of compound in which the density of the GSK-3α or GSK-3β band is 50% of the no compound control."}, "GSK3β TYR 216": {"biological_target": "GSK3β TYR 216 (Homo sapiens (Human), UniProt P49841)", "sequence (P49841 whole entry)": "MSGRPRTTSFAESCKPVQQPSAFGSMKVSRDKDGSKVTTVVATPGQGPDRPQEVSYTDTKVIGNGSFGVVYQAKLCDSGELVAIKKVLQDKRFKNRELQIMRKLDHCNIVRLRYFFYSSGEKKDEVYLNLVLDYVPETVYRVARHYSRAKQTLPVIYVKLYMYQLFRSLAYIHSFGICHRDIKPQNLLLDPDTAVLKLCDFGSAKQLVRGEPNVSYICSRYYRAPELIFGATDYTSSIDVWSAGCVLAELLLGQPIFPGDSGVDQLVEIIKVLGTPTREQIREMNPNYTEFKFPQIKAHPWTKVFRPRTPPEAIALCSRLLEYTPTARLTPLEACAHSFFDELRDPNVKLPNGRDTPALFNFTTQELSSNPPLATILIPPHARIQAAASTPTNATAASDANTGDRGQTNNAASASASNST", "assay": "GSK3β p-TYR inhibition assay, western blotting of Jurkat cells", "assay_type": "cell-based", "details": "compound incubated o/n, read-out: GSK3b pTYR 216: IC50", "experimental": "as §1, §2, §3, §4, §5"}, "GSK-3β (AA 1-420)": {"biological_target": "GSK-3β (AA 1-420) (Homo sapiens (Human), UniProt P49841)", "sequence (P49841 whole entry, species assumed, the tested form may be a part)": "as the sequence (P49841 whole entry) above", "assay": "GSK-3 Inhibition Assay (standard coupled enzyme system)", "assay_type": "biochemical", "details": "20 μM ATP, 300 μM peptide, 20 nM GSK-3β, 30° C.", "experimental": "Compounds of the present invention were screened for their ability to inhibit GSK-3β (AA 1-420) activity using a standard coupled enzyme system (Fox et al., Protein Sci. 1998, 7, 2249). Reactions were carried out in a solution containing 100 mM HEPES (pH 7.5), 10 mM MgCl2, 25 mM NaCl, 300 μM NADH, 1 mM DTT and 1.5% DMSO. Final substrate concentrations in the assay were 20 μM ATP (Sigma Chemicals, St Louis, Mo.) and 300 μM peptide (American Peptide, Sunnyvale, Calif.). Reactions were carried out at 30° C. and 20 nM GSK-3β. Final concentrations of the components of the coupled enzyme system were 2.5 mM phosphoenolpyruvate, 300 μM NADH, 30 μg/ml pyruvate kinase and 10 μg/ml lactate dehydrogenase.\nAn assay stock buffer solution was prepared containing all of the reagents listed above with the exception of ATP and the test compound of the present invention. The assay stock buffer solution (175 μl) was incubated in a 96 well plate with 5 μl of the test compound of the present invention at final concentrations spanning 0.002 μM to 30 μM at 30° C. for 10 min. Typically, a 12-point titration was conducted by preparing serial dilutions (from 10 mM compound stocks) with DMSO of the test compounds of the present invention in daughter plates. The reaction was initiated by the addition of 20 μl of ATP (final concentration 20 μM). Rates of reaction were obtained using a Molecular Devices Spectramax plate reader (Sunnyvale, Calif.) over 10 min at 30° C. The Ki values were determined from the rate data as a function of inhibitor concentration."}, "[2]": {"system": "rat brains after transient middle cerebral artery occlusion (MCAO)", "details": "cited from earlier work"}, "[3]": {"system": "amyloid-β peptide tissue levels", "details": "mice over-expressing APP, treated over a three-week period; cited from earlier work"}, "[4]": {"details": "read-out: Ki value, inhibition of GSK-3"}, "[5]": {"details": "read-out: Ki value, inhibition of GSK-3 (upper bound)"}}, "note": "Where two headings read alike, the source gives them in different places.", "data": [{"compound": "Cc1cc(Nc2n[nH]c3ncc(F)cc23)nc(-c2ccccc2)c1C", "note": "[Compound I-5]", "values": [{"measurement": "IC50", "setting": "[1]", "value": 1100, "unit": "nM"}, {"measurement": "IC50", "setting": "GSK3α TYR 279", "value": 0.6, "unit": "nM"}, {"measurement": "IC50", "setting": "GSK3β TYR 216", "value": 20, "unit": "nM"}, {"measurement": "Ki", "setting": "GSK-3β (AA 1-420); [4]", "value": "≤ 10", "unit": "nM"}]}, {"compound": "IGF-1: insulin growth factor-1, a known GSK-3 inhibitor", "values": [{"measurement": "infarct size", "setting": "[2]", "value": "reduced infarct size"}]}, {"compound": "[Li]", "note": "[lithium]", "values": [{"measurement": "decrease in amyloid-β peptide tissue levels", "setting": "[3]", "value": "> 50", "unit": "%"}]}, {"compound": "Cc1cc(Nc2ncc(C)s2)nc(-c2ccccc2Cl)c1", "note": "[Compound I-6]", "values": [{"measurement": "IC50", "setting": "[1]", "value": 1300, "unit": "nM"}, {"measurement": "Ki", "setting": "GSK-3β (AA 1-420); [4]", "value": "> 10", "unit": "nM"}, {"measurement": "Ki", "setting": "GSK-3β (AA 1-420); [5]", "value": "≤ 1000", "unit": "nM"}]}, {"compound": "Cc1cc(Nc2n[nH]c3ncc(F)cc23)nc(-c2ccccc2Cl)c1C", "note": "[Compound I-2]", "values": [{"measurement": "IC50", "setting": "[1]", "value": "> 10000", "unit": "nM"}, {"measurement": "IC50", "setting": "GSK3α TYR 279", "value": 10, "unit": "nM"}, {"measurement": "IC50", "setting": "GSK3β TYR 216", "value": 200, "unit": "nM"}, {"measurement": "Ki", "setting": "GSK-3β (AA 1-420); [4]", "value": "≤ 10", "unit": "nM"}]}, {"compound": "Cc1cc(-c2ccccc2Cl)nc(Nc2n[nH]c3ncc(F)cc23)c1C", "note": "[Compound I-4]", "values": [{"measurement": "IC50", "setting": "GSK3α TYR 279", "value": 30, "unit": "nM"}, {"measurement": "IC50", "setting": "GSK3β TYR 216", "value": 300, "unit": "nM"}, {"measurement": "Ki", "setting": "GSK-3β (AA 1-420); [4]", "value": "> 10", "unit": "nM"}, {"measurement": "Ki", "setting": "GSK-3β (AA 1-420); [5]", "value": "≤ 1000", "unit": "nM"}]}, {"compound": "Cc1cc(Nc2n[nH]c3ncc(F)cc23)nc(-c2ccccc2Cl)c1", "note": "[Compound I-3]", "values": [{"measurement": "IC50", "setting": "[1]", "value": 2700, "unit": "nM"}, {"measurement": "IC50", "setting": "GSK3α TYR 279", "value": 2, "unit": "nM"}, {"measurement": "IC50", "setting": "GSK3β TYR 216", "value": 30, "unit": "nM"}, {"measurement": "Ki", "setting": "GSK-3β (AA 1-420); [4]", "value": "≤ 10", "unit": "nM"}]}, {"compound": "Fc1cnc2[nH]nc(Nc3cc(C(F)(F)F)cc(-c4ccccc4Cl)n3)c2c1", "note": "[Compound I-1, N-(6-(2-chlorophenyl)-4-(trifluoromethyl)pyridin-2-yl)-5-fluoro-1H-pyrazolo[3,4-b]pyridin-3-amine]", "values": [{"measurement": "IC50", "setting": "[1]", "value": 2080, "unit": "nM"}, {"measurement": "IC50", "setting": "GSK3α TYR 279", "value": 3, "unit": "nM"}, {"measurement": "IC50", "setting": "GSK3β TYR 216", "value": 50, "unit": "nM"}, {"measurement": "Ki", "setting": "GSK-3β (AA 1-420); [4]", "value": "> 10", "unit": "nM"}, {"measurement": "Ki", "setting": "GSK-3β (AA 1-420); [5]", "value": "≤ 1000", "unit": "nM"}]}]}
